Experimental findings from patent US20120190659A1, “ANGIOGENESIS INHIBITORS” (Children's Medical Center Corporation, priority 2009, published 2012) are described below.

Structures are written as SMILES. pIC50: −log10 of the molar value.

Series [1] deals with human umbilical vascular endothelial (HUVE) cells. Briefly: HUVE cell migration, transwell migration assay stimulated by VEGF. The class given is cell-based. As to conditions: for HUVE cell migration: 20 ng/ml VEGF. As to the method:
Cell migration is an important aspect of angiogenesis. The effect of the test compounds on HUVE cell motility as stimulated by VEGF was examined using a transwell migration assay. This assay was performed by a similar procedure described in Shimizu A, Mammoto A, Italiano J E Jr, Pravda E, Dudley A C, Ingber D E, Klagsbrun M. “ABL2/ARG tyrosine kinase mediates SEMA3F-induced RhoA inactivation and cytoskeleton collapse in human glioma cells.” J. Biol. Chem. 2008, 283:27230-8, the teaching of which are incorporated by reference.
Briefly, transwell membranes (Coster, N.Y.) were coated with 0.5% gelatin, and cells were seeded (10^5 cells/100 μl) with 0.3% FBS/EBM2. The test compound was added to the both sides of the chamber. Cells were stained with Giemsa solution 16 hours later, and counted in 10 random fields (×400).

The test system is the same in series [2]. Kind of series: Tube formation of HUVE cells on Matrigel. It counts as cell-based. As to conditions: for tube formation, quantitative analysis of mean tube length: cultured with VEGF in the basal EBM2 medium (FIG. 12). Here is the method:
The effect of an agent on tube formation of HUVE cells was determined by a procedure described in Grant D S, Kinsella J L, Kibbey M C, LaFlamme S, Burbelo P D, Goldstein A L, Kleinman H K “Matrigel induces thymosin beta 4 gene in differentiating endothelial cells.” J Cell Sci. 1995, 108:3685-94, the teachings of which are incorporated by reference.
Briefly, HUVE cells (10^4 cells/150 μl of EBM-2) were plated on Matrigel™ (BD biosciences) and incubated for 12-16 hrs in the presence of VEGF (20 ng/ml) and the test compound. Tube formation was assessed in 10 random fields (4×).

For series [3], the system named is developing vasculature of the newborn mouse retina. Briefly: In vivo screening assay for inhibitors of retinal angiogenesis (intravitreous injection, newborn mice). As to conditions: for retinal vessel formation: 5 nmol single injection. The source says:
Blood vessel formation is critical for organ formation in the body. Compounds that inhibit angiogenesis within specific tissue types have therapeutic potential. For example, compounds that are effective in the retina may be used for the treatment of many types of blindness and other opthalmological diseases. Therefore, an in vivo method to screen for compounds that inhibit the growing vascular networks within the developing whole retina in eyes of living newborn mice was developed.
To screen in vivo in the eye for inhibitors of retinal angiogenesis, we adapted and modified the system described in Mammoto, A., Connor, K. M., Mammoto, T., Yung, C. W., Huh, D., Aderman, C. M., Mostoslaysky, G., Smith, L. E. H., & Ingber, D. E. A mechanosensitive transcriptional mechanism that controls angiogenesis. Nature 457, 1103-1108 (2009); and Shih, S. C., Ju, M., Liu, N. & Smith, L. E. Selective stimulation of VEGFR-1 prevents oxygen-induced retinal vascular degeneration in retinopathy of prematurity. J. Clin. Invest. 112, 50-7 (2003), the teachings of both are incorporated herein by reference. This assay was performed by a procedure described in Chen J, Connor K M, Aderman C M, Smith L E. “Erythropoietin deficiency decreases vascular stability in mice.” J. Clin. Invest. 2008, 118:526-33, the teachings of which are incorporated herein by reference.
After intraperitoneal injection of Avertin (125-240 mg/kg), the eyelid of mice was opened in a gentle manner by using tiny sterile blunt forceps. Test compound was injected into the vitreous of one eye of the mouse and a vehicle was injected into the other eye of the same mouse at either P6 or P14. Injections were performed by inserting an Exmire microsyringe (MS-NE05, ITO Corp. Fuji, Japan) into the vitreous 1 mm posterior to the corneal limbus. Pupils were dilated with 1% tropicamide. Insertion and the injection (0.3-0.5 μL solution) were directly viewed through an operating microscope, taking care not to injure the lens or the retina. The time points for intravitreous injection were set at P6 and P14 because these stages represent distinct developmental stages during vascular network formation. Blood vessels start spreading over the surface of retinal tissue at early times (P4-P6), then these distributed blood vessels start migrating into the deeper layer of the retina to make a three-dimensional vascular network at later times (P6-P14). Thus, using this approach, screening for inhibitors of initiation of angiogenesis at early times, and agents that induce regression of preexisting capillary vessels at the later time point can be identified.
After injection, the eyelid was treated with bacitracin eye antibiotic ointment, and eyelids naturally reformed after the procedure. Vascular network formation in the retina was assessed two days after injection using flat-mounted, fluorescein-conjugated isolectin-staining and immunohistochemical analysis. Quantification of vessel density was performed with Adobe photoshop.

For series [4], the system named is human umbilical vascular endothelial (HUVE) cells. Briefly: HUVE cell growth (BrdU incorporation). The class given is cell-based. As to conditions: for HUVE cell growth induced by PDGF / HUVE cell growth induced by VEGF / HUVE cell growth induced by bFGF: concentration not given. As to the method: Incorporation of 5-bromo-2′-deoxyuridibe (BrdU) is a common method used to detect the DNA replication in actively proliferating cells. Inhibition of cell growth is inferred by the decrease of BrdU incorporation into the cells. […] The assay can be preformed in the presence or absence of growth factors such as VEGF, bFGF and PDGF. This assay was performed by a procedure described in Huang S, Chen C S, Ingber D E. “Control of cyclin D1, p 27(Kip1), and cell cycle progression in human capillary endothelial cells by cell shape and cytoskeletal tension.” Mol Biol Cell. 1998, 9:3179-93, the teachings of which are incorporated herein by reference.
A general note: Uptake of a labelled nucleoside into DNA is a usual measure of proliferation.

Series [5] shares this test system. Briefly: Compound toxicity in HUVE cells (morphology after 24 h culture). It counts as cell-based. Particulars: 50-2000 nM, 5% FBS/EGM2 media. Here is the method: HUVE cells were cultured for 24 hours on standard tissue culture dishes in the presence of EJC 1-6 over a range of concentration (50-2000 nM). […] (FIGS. 1 and 2).
The mark [6] stands for this setting: 50 nM, cultured with VEGF in the basal EBM2 medium.

For `CN(C)[C@H]1CC[C@H]2[C@@H](CC[C@@H]3[C@@H]2CC[C@]2(C)C(c4ccncc4)=CC[C@@H]32)C1` [EJC-15], in series [1] (50 nM test compound), the HUVE cell migration entry was “inactive”.
The same measure, in the same setting: to `C[C@]12CC[C@H]3[C@@H](CC[C@H]4C[C@@H](N5CCCC5)CC[C@@H]43)[C@@H]1CC=C2c1ccc2cnccc2c1` [EJC-22] belongs “did not inhibit”; to `C[C@]12CC[C@H]3[C@@H](CC[C@H]4C[C@@H](N5CCOCC5)CC[C@@H]43)[C@@H]1CC=C2c1ccc2ccncc2c1` [EJC-23], “did not inhibit”.
As to `CN(C)[C@H]1CC[C@H]2[C@@H](CC[C@@H]3[C@@H]2CC[C@]2(C)[C@@H](c4ccc5ccncc5c4)CC[C@@H]32)C1` [EJC-07], the HUVE cell migration result in series [1] (200 nM test compound) is reported as “active”.
`CN(C)[C@H]1CC[C@H]2[C@@H](CC[C@@H]3[C@@H]2CC[C@]2(C)C(c4cccc5ncccc45)=CC[C@@H]32)C1` [EJC-13]: the HUVE cell migration result in series [1] (50 nM test compound) was “moderately active”.
Same read-out and setting: the value for `C[C@]12CC[C@H]3[C@@H](CC[C@H]4C[C@@H](N5CCCC5)CC[C@@H]43)[C@@H]1CC=C2c1ccc2ccncc2c1` [EJC-21] was “did not inhibit”.
Regarding `CN1CCc2ccc(C3=CC[C@H]4[C@@H]5CC[C@H]6C[C@@H](N(C)C)CC[C@@H]6[C@H]5CC[C@]34C)cc2C1` [EJC-9], the HUVE cell migration result in series [1] (50 nM test compound) and in series [1] (200 nM test compound) was “not active” in each case. In series [2] (setting [6]), the tube formation result is on record as “significant inhibition”. Also, in series [2] (50 nM), the “tube formation, quantitative analysis of mean tube length” value is on record as “inhibit”.
For `CN(C)[C@H]1CC[C@H]2[C@@H](CC[C@@H]3[C@@H]2CC[C@]2(C)C(c4ccc5cnccc5c4)=CC[C@@H]32)C1` [EJC-10], the HUVE cell migration entry in series [1] (50 nM test compound) is on record as “inhibit”. Besides, the pIC50 in series [1] (Homo sapiens, VEGF-stimulated, transwell, read-out: cell migration inhibition IC50) is 7.15; in series [4] (Homo sapiens, in the presence of PDGF, read-out: IC50, cell growth induced by PDGF) it was 7.10; in series [4] (Homo sapiens, in the presence of VEGF, read-out: IC50, cell growth induced by VEGF), 7.78; in series [4] (Homo sapiens, in the presence of bFGF, read-out: IC50, cell growth induced by bFGF), 7.19; in series [4] (Homo sapiens, media absent an exogenous growth factor, read-out: IC50, growth of HUVE cells) it was 7.24; in series [4] (in the presence of PDGF, read-out: IC50, cell growth induced by PDGF), 7.10. The pIC50 in series [4] (in the presence of bFGF, read-out: IC50, cell growth induced by bFGF) is 7.19. Also, the retinal vessel formation entry in series [3] (p6 mice) and in series [3] (p14 mice) was “did not inhibit retinal vessel formation completely” each time. The “vessel density in the retina compared to control” value in series [3] (single dose of 500 pmol, p6 mice (FIG. 13)) is on record as “decreases”. The retinal angiogenesis result in series [3] (single injection of 500 pmol, p6 mice) is “inhibited”. Moreover, the tube formation result in series [2] (setting [6]) is on record as “significant inhibition”. Besides, the “tube formation, quantitative analysis of mean tube length” value in series [2] (50 nM) is listed as “inhibit”. The “HUVE cell growth induced by PDGF” value in series [4] is given as “inhibited”. The “HUVE cell growth induced by VEGF” value in series [4] is “inhibited”. The “HUVE cell growth induced by bFGF” value in series [4] is “inhibited”.
In the case of `CN(C)[C@H]1CC[C@H]2[C@@H](CC[C@@H]3[C@@H]2CC[C@]2(C)C(c4cccc5cnccc45)=CC[C@@H]32)C1` [EJC-12], the HUVE cell migration result in series [1] (50 nM test compound) is on record as “inhibit”.
Same read-out and setting: the value for `CN1CCc2ccc([C@H]3CC[C@H]4[C@@H]5CC[C@H]6C[C@@H](N(C)C)CC[C@@H]6[C@H]5CC[C@]34C)cc2C1` [EJC-8] was “inhibit”; that for `CN(C)[C@H]1CC[C@H]2[C@@H](CC[C@@H]3[C@@H]2CC[C@]2(C)C(c4ccc5ncccc5c4)=CC[C@@H]32)C1` [EJC-11] was “moderately active”.
For `CN(C)[C@H]1CC[C@H]2[C@@H](CC[C@@H]3[C@@H]2CC[C@]2(C)C(c4cccnc4)=CC[C@@H]32)C1` [EJC-14], the HUVE cell migration entry in series [1] (50 nM test compound) is given as “inhibit”. For the same compound, the retinal vessel formation result in series [3] (p6 mice) is given as “did not inhibit”. Further, the retinal vessel formation entry in series [3] (p14 mice) was “did not inhibit”. Also, the “cell growth induced by VEGF” value in series [4] (50 nM) was “inhibited”. In series [4], the “HUVE cell growth induced by PDGF” value was “only at higher concentrations and not”; the “HUVE cell growth induced by VEGF” value was “inhibited”; the “HUVE cell growth induced by bFGF” value was “only at higher concentrations and not”.
`CN(C)[C@@H]1CC[C@H]2[C@@H](CC[C@@H]3[C@@H]2CC[C@]2(C)C(c4ccc5ccncc5c4)=CC[C@@H]32)C1` [EJC-1]: the HUVE cell migration result was “exhibited inhibitory activity” in series [1] (200 nM test compound), “inhibit” in series [1] (1 μM (1000 nM) test compound) and “inhibit” in series [1] (2000 nM test compound). Besides, in series [5], the “morphological change of HUVE cells” value is given as “No morphological change”. Further, the tube formation entry in series [2] (2 μM) was “inhibited”. The “growth of HUVE cells (BrdU incorporation)” value in series [4] (0, 200, 1000 and 2000 nM (FIG. 3B)) was “inhibit the growth”. Besides, the BrdU incorporation result in series [4] (1 μM (FIG. 3A)) was “inhibit”. For the same compound, the “doses that inhibited BrdU incorporation” value in series [4] (FIGS. 3A & 3B) is on record as “greater than 1 μM”.
For the compound `C[C@]12CC[C@H]3[C@@H](CC[C@H]4C[C@@H](N5CCOCC5)CC[C@@H]43)[C@@H]1CC=C2c1ccc2cnccc2c1` [EJC-24], in series [1] (50 nM test compound), the HUVE cell migration entry was “did not inhibit”.
